Where a name gives a salt, the structure may show the parent alone.

As usually defined, the EC50 is the concentration that produces a half-maximal response.

The experiment addresses T1, human ALX receptor (Homo sapiens, UniProt P25090).
T1 construct: expressed in transfected cells; host or cells: HEK293 (HEK293-hALXR-Gα16)
T1 sequence (P25090 1-351): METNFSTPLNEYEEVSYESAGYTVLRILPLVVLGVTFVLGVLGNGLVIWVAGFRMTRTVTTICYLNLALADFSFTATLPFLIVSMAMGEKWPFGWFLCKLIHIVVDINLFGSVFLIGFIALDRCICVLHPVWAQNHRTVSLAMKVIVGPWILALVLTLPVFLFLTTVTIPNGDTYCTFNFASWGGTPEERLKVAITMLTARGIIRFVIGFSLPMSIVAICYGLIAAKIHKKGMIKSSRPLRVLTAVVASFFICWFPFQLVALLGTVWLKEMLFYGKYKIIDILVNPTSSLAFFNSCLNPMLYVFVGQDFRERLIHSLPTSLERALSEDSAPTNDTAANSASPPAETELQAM
As to the kind of experiment: Intracellular calcium measurements (FLIPR) in HEK293-hALXR-Gα16 cells, agonistic activity. Type of experiment: cell-based. The settings on record: values normalized to WKYMVm 10 nM. The method, then: The ALX receptor and FPRL2 agonistic activities of the compounds of formula (I) are determined in accordance with the following experimental method.
Intracellular Calcium Measurements:
Cells expressing recombinant human ALX receptor and the G-protein Gα16 (HEK293-hALXR-Gα16) were grown to 80% confluency in Growing Medium (GM). Cells were detached from culture dishes with a cell dissociation buffer (Invitrogen, 13151-014), and collected by centrifugation at 1,000 rpm at rt for 5 min in Assay Buffer (AB) (equal parts of Hank's BSS (Gibco, 14065-049) and DMEM without Phenol Red (Gibco, 11880-028)). After 60 min incubation at 37° C. under 5% CO2 in AB supplemented with 1 μM Fluo-4 (AM) (Invitrogen, F14202), and 20 mM HEPES (Gibco, 15630-056), the cells were washed and resuspended in AB. They were then seeded onto 384-well FLIPR assay plates (Greiner, 781091) at 50,000 cells in 70 μl per well and sedimented by centrifugation at 1,000 rpm for 1 min. Stock solutions of test compounds were made up at a concentration of 10 mM in DMSO, and serially diluted in AB to concentrations required for activation dose response curves. WKYMVm (Phoenix Peptides) was used as a reference agonist. FLIPR384 or FLIPR Tetra instruments (Molecular Devices) were operated according to the manufacturer's standard instructions, adding 4 μl of test compound dissolved at 10 mM in DMSO and diluted prior to the experiment in assay buffer to obtain the desired final concentration. Changes in fluorescence were monitored before and after the addition of test compounds at lex=488 nm and lem=540 nm. Emission peak values above base level after compounds addition were exported after base line subtraction. Values were normalized to high-level control (WKYMVm compound, 10 nM final concentration) after subtraction of the base line value (AB addition).
`CN1CCC(OC(=O)[C@H]2[C@H](C(=O)Nc3ccc(Br)nc3)[C@@H]3CC[C@H]2C32CC2)C1` (stereo partly drawn) [Example 14, (1S,2R,3R,4R)-[1-Methylpyrrolidin-3-yl 2-((6-bromopyridin-3-yl)carbamoyl)spiro[bicyclo[2.2.1]heptane-7,1′-cyclopropane]-3-carboxylate]]: the concentration for a half-maximal effect (EC50) was found to be 25.8 nM.

In the case of `Cc1cc(CNC(=O)[C@H]2[C@H](C(=O)OC3CCN(C)C3)[C@H]3CC[C@@H]2C32CC2)no1` (stereo partly drawn) [Example 15, (1S,2R,3R,4R)-[1-Methylpyrrolidin-3-yl 2-(((5-methylisoxazol-3-yl)methyl)carbamoyl)spiro[bicyclo[2.2.1]heptane-7,1′-cyclopropane]-3-carboxylate]], the EC50 came to 34.6 nM.

Consider `Cc1cc(CNC(=O)[C@H]2[C@H](C(=O)OC3CCCNC3)[C@H]3CC[C@@H]2C32CC2)no1` (stereo partly drawn) [Example 16, (1S,2R,3R,4R)-[Piperidin-3-yl 2-(((5-methylisoxazol-3-yl)methyl)carbamoyl)spiro[bicyclo[2.2.1]heptane-7,1′-cyclopropane]-3-carboxylate]hydrochloride], for which the EC50 is 53.7 nM.

Regarding `Cc1cc(CNC(=O)[C@H]2[C@H](C(=O)OCCC3CCCNC3)[C@H]3CC[C@@H]2C32CC2)no1` (stereo partly drawn) [Example 17, (1S,2R,3R,4R)-[2-(Piperidin-3-yl)ethyl 2-(((5-methylisoxazol-3-yl)methyl)carbamoyl)spiro[bicyclo[2.2.1]heptane-7,1′-cyclopropane]-3-carboxylate]hydrochloride], the half-maximal effective concentration (EC50) came out at 79.4 nM.

Regarding `Cc1cc(CNC(=O)[C@H]2[C@H](C(=O)OCC3CCCNC3)[C@H]3CC[C@@H]2C32CC2)no1` (stereo partly drawn) [Example 18, (1S,2R,3R,4R)-[Piperidin-3-ylmethyl 2-(((5-methylisoxazol-3-yl)methyl)carbamoyl)spiro[bicyclo[2.2.1]heptane-7,1′-cyclopropane]-3-carboxylate]hydrochloride], the concentration for a half-maximal effect (EC50) stood at 87.7 nM.

With `Cc1cc(CNC(=O)[C@H]2[C@H](C(=O)O[C@@H]3CCNC3)[C@H]3CC[C@@H]2C32CC2)no1` [Example 19, (1S,2R,3R,4R)-[(R)-Pyrrolidin-3-yl 2-(((5-methylisoxazol-3-yl)methyl)carbamoyl)spiro[bicyclo[2.2.1]heptane-7,1′-cyclopropane]-3-carboxylate]hydrochloride], the 50% effective concentration (EC50) was found to be 105 nM.

For `Cc1cc(CNC(=O)[C@H]2[C@H](C(=O)OCC[C@@H]3CCCCN3)[C@H]3CC[C@@H]2C32CC2)no1` [Example 20, (1S,2R,3R,4R)-[(S)-2-(Piperidin-2-yl)ethyl 2-(((5-methylisoxazol-3-yl)methyl)carbamoyl)spiro[bicyclo[2.2.1]heptane-7,1′-cyclopropane]-3-carboxylate]hydrochloride], the EC50 was found to be 118 nM.

With `CN(C)CCCOC(=O)[C@H]1[C@H](C(=O)Nc2ccc(Br)nc2)[C@@H]2CC[C@H]1C21CC1` [Example 21, (1S,2R,3R,4R)-[1-Dimethylaminoprop-3-yl 2-((6-bromopyridin-3-yl)carbamoyl)spiro[bicyclo[2.2.1]heptane-7,1′-cyclopropane]-3-carboxylate]], the EC50 stood at 146 nM.

`CN1CCCCC1COC(=O)[C@H]1[C@H](C(=O)Nc2ccc(Br)nc2)[C@@H]2CC[C@H]1C21CC1` (stereo partly drawn) [Example 22, (1S,2R,3R,4R)-[1-Methyl-piperidin-2-ylmethyl 2-((6-bromopyridin-3-yl)carbamoyl)spiro[bicyclo[2.2.1]heptane-7,1′-cyclopropane]-3-carboxylate]]: the 50% effective concentration (EC50) was determined as 217 nM.

For `O=C(OCCN1CCCC1=O)[C@H]1[C@H](C(=O)Nc2ccc(Br)nc2)[C@@H]2CC[C@H]1C21CC1` [Example 23, (1S,2R,3R,4R)-[2-(2-Oxopyrrolidin-1-yl)ethyl 2-((6-bromopyridin-3-yl)carbamoyl)spiro[bicyclo[2.2.1]heptane-7,1′-cyclopropane]-3-carboxylate]], the EC50 turned out to be 281 nM.

For `O=C(OC1CNC1)[C@H]1[C@H](C(=O)Nc2ccc(Br)nc2)[C@@H]2CC[C@H]1C21CC1` [Example 24, (1S,2R,3R,4R)-[Azetidin-3-yl 2-((6-bromopyridin-3-yl)carbamoyl)spiro[bicyclo[2.2.1]heptane-7,1′-cyclopropane]-3-carboxylate]hydrochloride], the EC50 turned out to be 289 nM.

Regarding `Cc1cc(CNC(=O)[C@H]2[C@H](C(=O)OCCCN(C)C)[C@H]3CC[C@@H]2C32CC2)no1` [Example 25, (1S,2R,3R,4R)-[1-Dimethylaminoprop-3-yl 2-(((5-methylisoxazol-3-yl)methyl)carbamoyl)spiro[bicyclo[2.2.1]heptane-7,1′-cyclopropane]-3-carboxylate]], the 50% effective concentration (EC50) came to 330 nM.

As to `Cc1cc(CNC(=O)[C@H]2[C@H](C(=O)OCC3CCCCN3C)[C@H]3CC[C@@H]2C32CC2)no1` (stereo partly drawn) [Example 26, (1S,2R,3R,4R)-[1-Methyl-piperidin-2-ylmethyl 2-(((5-methylisoxazol-3-yl)methyl)carbamoyl)spiro[bicyclo[2.2.1]heptane-7,1′-cyclopropane]-3-carboxylate]], the EC50 is 406 nM.

On to `Cc1cc(CNC(=O)[C@H]2[C@H](C(=O)OCCN(C)C)[C@H]3CC[C@@H]2C32CC2)no1` [Example 27, (1S,2R,3R,4R)-[1-Dimethylaminoeth-2-yl 2-(((5-methylisoxazol-3-yl)methyl)carbamoyl)spiro[bicyclo[2.2.1]heptane-7,1′-cyclopropane]-3-carboxylate]], for which the EC50 worked out at 585 nM.

Turning to `Cc1cc(CNC(=O)[C@H]2[C@H](C(=O)OCC(C)C)[C@H]3CC[C@@H]2C32CC2)no1` [Example 28, (1S,2R,3R,4R)-[Isobutyl 2-(((5-methylisoxazol-3-yl)methyl)carbamoyl)spiro[bicyclo[2.2.1]heptane-7,1′-cyclopropane]-3-carboxylate]], the EC50 is 734 nM.

Turning to `Cc1cc(CNC(=O)[C@H]2[C@H](C(=O)OC3CCCC3)[C@H]3CC[C@@H]2C32CC2)no1` [Example 29, (1S,2R,3R,4R)-[Cyclopentyl 2-(((5-methylisoxazol-3-yl)methyl)carbamoyl)spiro[bicyclo[2.2.1]heptane-7,1′-cyclopropane]-3-carboxylate]], the EC50 turned out to be 790 nM.

Regarding `CCCOC(=O)[C@H]1[C@H](C(=O)NCc2cc(C)on2)[C@@H]2CC[C@H]1C21CC1` [Example 30, (1S,2R,3R,4R)-[Propyl 2-(((5-methylisoxazol-3-yl)methyl)carbamoyl)spiro[bicyclo[2.2.1]heptane-7,1′-cyclopropane]-3-carboxylate]], the EC50 came out at 808 nM.

For the compound `O=C(OCCOCCN1CCCC1)[C@H]1[C@H](C(=O)Nc2ccc(Br)nc2)[C@@H]2CC[C@H]1C21CC1` [Example 31, (1S,2R,3R,4R)-[2-(2-(Pyrrolidin-1-yl)ethoxy)ethyl 2-((6-bromopyridin-3-yl)carbamoyl)spiro[bicyclo[2.2.1]heptane-7,1′-cyclopropane]-3-carboxylate]], the EC50 was 2.2 nM.

For `O=C(OCCOCCN1CCCC1)[C@H]1[C@H](C(=O)NCc2ccc(Br)cc2F)[C@@H]2CC[C@H]1C21CC1` [Example 32, (1S,2R,3R,4R)-[2-(2-(Pyrrolidin-1-yl)ethoxy)ethyl 2-((4-bromo-2-fluorobenzyl)carbamoyl)spiro[bicyclo[2.2.1]heptane-7,1′-cyclopropane]-3-carboxylate]], the EC50 came out at 226 nM.

As to `Cc1cc(CNC(=O)[C@H]2[C@H](C(=O)OCCOCCN3CCCC3)[C@H]3CC[C@@H]2C32CC2)no1` [Example 33, (1S,2R,3R,4R)-[2-(2-(Pyrrolidin-1-yl)ethoxy)ethyl 2-(((5-methylisoxazol-3-yl)methyl)carbamoyl)spiro[bicyclo[2.2.1]heptane-7,1′-cyclopropane]-3-carboxylate]], the 50% effective concentration (EC50) was 30.7 nM.

Take `Cc1cc(CNC(=O)[C@H]2[C@H](C(=O)OCCOCCN3CC[C@H](F)C3)[C@H]3CC[C@@H]2C32CC2)no1` [Example 34, (1S,2R,3R,4R)-[(S)-2-(2-(3-Fluoropyrrolidin-1-yl)ethoxy)ethyl 2-(((5-methylisoxazol-3-yl)methyl)carbamoyl)spiro[bicyclo[2.2.1]heptane-7,1′-cyclopropane]-3-carboxylate]]: the EC50 was 21.6 nM.

As for `O=C(Nc1ccc(Br)cc1)C1C(C(=O)OCC2CCNCC2)C2C=CC1C21CC1` [Example 35, (1R,4S,5R,6R)-[Piperidin-4-ylmethyl 5-((4-bromophenyl)carbamoyl)spiro[bicyclo[2.2.1]hept[2]ene-7,1′-cyclopropane]-6-carboxylate]], the 50% effective concentration (EC50) is 2.9 nM.

The values above are taken from patent publication US9187435B2, “Bridged Spiro[2.4]heptane ester derivatives” (Actelion Pharmaceuticals Ltd., priority 2010, dated 2015).
